What was measured:
Assay in all cases: relative viability (nuclei count vs DMSO), 5 days (fraction); higher = more cells survive
[1] = compound: Nc1ccccc1NC(=O)c1ccc(CNC(=O)OCc2cccnc2)cc1 [Entinostat] + Cc1nc(NC(=O)N2CCC[C@H]2C(N)=O)sc1-c1ccnc(C(C)(C)C(F)(F)F)c1 [Alpelisib] (partner 2 µM)
Summary of the method: (§1)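 For relative viability, nuclei counts in treated wells were divided by those in vehicle wells. Lung cancer cell lines had been pin-tool dosed in 1536-well plates the day after seeding and cultured for 5 days, then fixed and stained in one step (final 0.05% Triton X-100, 1% formaldehyde, 1 ug/ml Hoechst) and imaged at 4×. Doses were one drug alone or a fixed anchor-drug dose plus five library-drug doses (not always all listed) in √10 steps, and values are duplicate-plate medians.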

[2] = compound: Nc1ccccc1NC(=O)c1ccc(CNC(=O)OCc2cccnc2)cc1 [Entinostat] + COc1cccc2cc(-c3nc([C@H]4CC[C@H](C(=O)O)CC4)n4ncnc(N)c34)[nH]c12 [OSI-027] (partner 0.5 µM)
Summary of the method: as §1

[3] = compound: Nc1ccccc1NC(=O)c1ccc(CNC(=O)OCc2cccnc2)cc1 [Entinostat] + C[C@@H](Oc1cc(-c2cnn(C3CCNCC3)c2)cnc1N)c1c(Cl)ccc(F)c1Cl [Crizotinib] (partner 1 µM)
Summary of the method: as §1

[4] = compound: Nc1ccccc1NC(=O)c1ccc(CNC(=O)OCc2cccnc2)cc1 [Entinostat] + COc1cc2c(Oc3ccc(NC(=O)C4(C(=O)Nc5ccc(F)cc5)CC4)cc3F)ccnc2cc1OCCCN1CCOCC1 [Foretinib] (partner 0.25 µM)
Summary of the method: as §1

With NCI-H1651 the relative viability ([1]; first compound 0.02 µM) was 1.08, the relative viability ([1]; first compound 0.06325 µM) was 0.979 and the relative viability ([1]; first compound 0.2 µM) was 0.994. It also gave a relative viability ([1]; first compound 0.6325 µM) of 0.748, a relative viability ([1]; first compound 2 µM) of 0.372 and a relative viability ([2]; first compound 0.02 µM) of 0.747. It also gave a relative viability ([2]; first compound 0.06325 µM) of 0.653, a relative viability ([2]; first compound 0.2 µM) of 0.71 and a relative viability ([2]; first compound 0.6325 µM) of 0.608. For the same cell line, the relative viability ([2]; first compound 2 µM) was 0.542, the relative viability ([3]; first compound 0.02 µM) was 0.877 and the relative viability ([3]; first compound 0.06325 µM) was 0.9. It also gave a relative viability ([3]; first compound 0.2 µM) of 0.878, a relative viability ([3]; first compound 0.6325 µM) of 0.807 and a relative viability ([3]; first compound 2 µM) of 0.721. The relative viability ([4]; first compound 0.02 µM) was 0.817, the relative viability ([4]; first compound 0.06325 µM) was 0.855 and the relative viability ([4]; first compound 0.2 µM) was 0.851. For the same cell line, the relative viability ([4]; first compound 0.6325 µM) was 0.632 and the relative viability ([4]; first compound 2 µM) was 0.394.
In the case of NCI-H1666, the relative viability ([1]; first compound 0.02 µM) is reported as 1.21, the relative viability ([1]; first compound 0.06325 µM) is reported as 0.856 and the relative viability ([1]; first compound 0.2 µM) is reported as 0.872. For the same cell line, the relative viability ([1]; first compound 0.6325 µM) was 0.318, the relative viability ([1]; first compound 2 µM) was 0.322 and the relative viability ([2]; first compound 0.02 µM) was 0.906. The relative viability ([2]; first compound 0.06325 µM) was 0.897, the relative viability ([2]; first compound 0.2 µM) was 0.859 and the relative viability ([2]; first compound 0.6325 µM) was 0.618. For the same cell line, the relative viability ([2]; first compound 2 µM) was 0.606, the relative viability ([3]; first compound 0.02 µM) was 0.973 and the relative viability ([3]; first compound 0.06325 µM) was 1.16. It also gave a relative viability ([3]; first compound 0.2 µM) of 0.843, a relative viability ([3]; first compound 0.6325 µM) of 0.404 and a relative viability ([3]; first compound 2 µM) of 0.321. The relative viability ([4]; first compound 0.02 µM) was 1.06, the relative viability ([4]; first compound 0.06325 µM) was 1.02 and the relative viability ([4]; first compound 0.2 µM) was 0.964. It also gave a relative viability ([4]; first compound 0.6325 µM) of 0.537 and a relative viability ([4]; first compound 2 µM) of 0.366.
Cell Line NCI-H1734 has a relative viability ([1]; first compound 0.02 µM) of 0.765, a relative viability ([1]; first compound 0.06325 µM) of 0.779 and a relative viability ([1]; first compound 0.2 µM) of 0.681. It also gave a relative viability ([1]; first compound 0.6325 µM) of 0.737, a relative viability ([1]; first compound 2 µM) of 0.581 and a relative viability ([2]; first compound 0.02 µM) of 0.635. For the same cell line, the relative viability ([2]; first compound 0.06325 µM) was 0.772, the relative viability ([2]; first compound 0.2 µM) was 0.59 and the relative viability ([2]; first compound 0.6325 µM) was 0.5. It also gave a relative viability ([2]; first compound 2 µM) of 0.488, a relative viability ([3]; first compound 0.02 µM) of 0.622 and a relative viability ([3]; first compound 0.06325 µM) of 0.709. It also gave a relative viability ([3]; first compound 0.2 µM) of 0.894, a relative viability ([3]; first compound 0.6325 µM) of 0.555 and a relative viability ([3]; first compound 2 µM) of 0.423. The relative viability ([4]; first compound 0.02 µM) was 0.883, the relative viability ([4]; first compound 0.06325 µM) was 0.939 and the relative viability ([4]; first compound 0.2 µM) was 0.929. For the same cell line, the relative viability ([4]; first compound 0.6325 µM) was 0.773 and the relative viability ([4]; first compound 2 µM) was 0.603.
NCI-H1755 gave a relative viability ([1]; first compound 0.02 µM) of 0.87, a relative viability ([1]; first compound 0.06325 µM) of 0.921 and a relative viability ([1]; first compound 0.2 µM) of 0.838. It also gave a relative viability ([1]; first compound 0.6325 µM) of 0.512, a relative viability ([1]; first compound 2 µM) of 0.353 and a relative viability ([2]; first compound 0.02 µM) of 0.693. It also gave a relative viability ([2]; first compound 0.06325 µM) of 0.776, a relative viability ([2]; first compound 0.2 µM) of 0.684 and a relative viability ([2]; first compound 0.6325 µM) of 0.566. It also gave a relative viability ([2]; first compound 2 µM) of 0.309, a relative viability ([3]; first compound 0.02 µM) of 0.832 and a relative viability ([3]; first compound 0.06325 µM) of 0.827. The relative viability ([3]; first compound 0.2 µM) was 0.771, the relative viability ([3]; first compound 0.6325 µM) was 0.462 and the relative viability ([3]; first compound 2 µM) was 0.347. The relative viability ([4]; first compound 0.02 µM) was 0.901, the relative viability ([4]; first compound 0.06325 µM) was 0.864 and the relative viability ([4]; first compound 0.2 µM) was 0.805. The relative viability ([4]; first compound 0.6325 µM) was 0.713 and the relative viability ([4]; first compound 2 µM) was 0.421.
With NCI-H1915 the relative viability ([1]; first compound 0.02 µM) was 1.07, the relative viability ([1]; first compound 0.06325 µM) was 1.08 and the relative viability ([1]; first compound 0.2 µM) was 1.05. For the same cell line, the relative viability ([1]; first compound 0.6325 µM) was 0.816, the relative viability ([1]; first compound 2 µM) was 0.402 and the relative viability ([2]; first compound 0.02 µM) was 0.594. It also gave a relative viability ([2]; first compound 0.06325 µM) of 0.605, a relative viability ([2]; first compound 0.2 µM) of 0.58 and a relative viability ([2]; first compound 0.6325 µM) of 0.283. It also gave a relative viability ([2]; first compound 2 µM) of 0.222, a relative viability ([3]; first compound 0.02 µM) of 0.854 and a relative viability ([3]; first compound 0.06325 µM) of 0.869. For the same cell line, the relative viability ([3]; first compound 0.2 µM) was 0.862, the relative viability ([3]; first compound 0.6325 µM) was 0.739 and the relative viability ([3]; first compound 2 µM) was 0.328. The relative viability ([4]; first compound 0.02 µM) was 1.06, the relative viability ([4]; first compound 0.06325 µM) was 1.06 and the relative viability ([4]; first compound 0.2 µM) was 1.07. For the same cell line, the relative viability ([4]; first compound 0.6325 µM) was 1 and the relative viability ([4]; first compound 2 µM) was 0.592.
NCI-H1944 gave a relative viability ([1]; first compound 0.02 µM) of 0.81, a relative viability ([1]; first compound 0.06325 µM) of 0.774 and a relative viability ([1]; first compound 0.2 µM) of 0.556. It also gave a relative viability ([1]; first compound 0.6325 µM) of 0.422, a relative viability ([1]; first compound 2 µM) of 0.273 and a relative viability ([2]; first compound 0.02 µM) of 0.382. It also gave a relative viability ([2]; first compound 0.06325 µM) of 0.404, a relative viability ([2]; first compound 0.2 µM) of 0.362 and a relative viability ([2]; first compound 0.6325 µM) of 0.233. For the same cell line, the relative viability ([2]; first compound 2 µM) was 0.208, the relative viability ([3]; first compound 0.02 µM) was 0.971 and the relative viability ([3]; first compound 0.06325 µM) was 0.756. For the same cell line, the relative viability ([3]; first compound 0.2 µM) was 0.629, the relative viability ([3]; first compound 0.6325 µM) was 0.344 and the relative viability ([3]; first compound 2 µM) was 0.249. For the same cell line, the relative viability ([4]; first compound 0.02 µM) was 1, the relative viability ([4]; first compound 0.06325 µM) was 0.711 and the relative viability ([4]; first compound 0.2 µM) was 0.472. It also gave a relative viability ([4]; first compound 0.6325 µM) of 0.364 and a relative viability ([4]; first compound 2 µM) of 0.218.
Work on NCI-H1975 yielded a relative viability ([1]; first compound 0.02 µM) of 0.454, a relative viability ([1]; first compound 0.06325 µM) of 0.38 and a relative viability ([1]; first compound 0.2 µM) of 0.38. For the same cell line, the relative viability ([1]; first compound 0.6325 µM) was 0.247, the relative viability ([1]; first compound 2 µM) was 0.204 and the relative viability ([2]; first compound 0.02 µM) was 0.532. For the same cell line, the relative viability ([2]; first compound 0.06325 µM) was 0.526, the relative viability ([2]; first compound 0.2 µM) was 0.467 and the relative viability ([2]; first compound 0.6325 µM) was 0.264. It also gave a relative viability ([2]; first compound 2 µM) of 0.209, a relative viability ([3]; first compound 0.02 µM) of 0.762 and a relative viability ([3]; first compound 0.06325 µM) of 0.778. The relative viability ([3]; first compound 0.2 µM) was 0.564, the relative viability ([3]; first compound 0.6325 µM) was 0.278 and the relative viability ([3]; first compound 2 µM) was 0.201. The relative viability ([4]; first compound 0.02 µM) was 0.904, the relative viability ([4]; first compound 0.06325 µM) was 0.78 and the relative viability ([4]; first compound 0.2 µM) was 0.64. It also gave a relative viability ([4]; first compound 0.6325 µM) of 0.326 and a relative viability ([4]; first compound 2 µM) of 0.224.
Cell Line NCI-H1993 has a relative viability ([1]; first compound 0.02 µM) of 0.674, a relative viability ([1]; first compound 0.06325 µM) of 0.704 and a relative viability ([1]; first compound 0.2 µM) of 0.733. The relative viability ([1]; first compound 0.6325 µM) was 0.695, the relative viability ([1]; first compound 2 µM) was 0.728 and the relative viability ([2]; first compound 0.02 µM) was 0.484. It also gave a relative viability ([2]; first compound 0.06325 µM) of 0.586, a relative viability ([2]; first compound 0.2 µM) of 0.53 and a relative viability ([2]; first compound 0.6325 µM) of 0.552. For the same cell line, the relative viability ([2]; first compound 2 µM) was 0.653, the relative viability ([3]; first compound 0.02 µM) was 0.832 and the relative viability ([3]; first compound 0.06325 µM) was 0.848. For the same cell line, the relative viability ([3]; first compound 0.2 µM) was 0.774, the relative viability ([3]; first compound 0.6325 µM) was 0.76 and the relative viability ([3]; first compound 2 µM) was 0.597. It also gave a relative viability ([4]; first compound 0.02 µM) of 0.891, a relative viability ([4]; first compound 0.06325 µM) of 0.686 and a relative viability ([4]; first compound 0.2 µM) of 0.664. For the same cell line, the relative viability ([4]; first compound 0.6325 µM) was 0.618 and the relative viability ([4]; first compound 2 µM) was 0.637.

From the supplement of paper PMC10307832
